{"source": "paper PMC2788219", "about": "“The Acrylamide (S)-2 As a Positive and Negative Modulator of Kv7 Channels Expressed in Xenopus laevis Oocytes” (PLoS ONE, 2009)", "type_in_all_cases": "cell-based", "key": {"Kv7.2-W236L": {"biological_target": "T1, Kv7.2-W236L (Homo sapiens, UniProt O43526, W236L)", "T1 construct": "gene KCNQ2", "T1 sequence (O43526 whole entry W236L)": "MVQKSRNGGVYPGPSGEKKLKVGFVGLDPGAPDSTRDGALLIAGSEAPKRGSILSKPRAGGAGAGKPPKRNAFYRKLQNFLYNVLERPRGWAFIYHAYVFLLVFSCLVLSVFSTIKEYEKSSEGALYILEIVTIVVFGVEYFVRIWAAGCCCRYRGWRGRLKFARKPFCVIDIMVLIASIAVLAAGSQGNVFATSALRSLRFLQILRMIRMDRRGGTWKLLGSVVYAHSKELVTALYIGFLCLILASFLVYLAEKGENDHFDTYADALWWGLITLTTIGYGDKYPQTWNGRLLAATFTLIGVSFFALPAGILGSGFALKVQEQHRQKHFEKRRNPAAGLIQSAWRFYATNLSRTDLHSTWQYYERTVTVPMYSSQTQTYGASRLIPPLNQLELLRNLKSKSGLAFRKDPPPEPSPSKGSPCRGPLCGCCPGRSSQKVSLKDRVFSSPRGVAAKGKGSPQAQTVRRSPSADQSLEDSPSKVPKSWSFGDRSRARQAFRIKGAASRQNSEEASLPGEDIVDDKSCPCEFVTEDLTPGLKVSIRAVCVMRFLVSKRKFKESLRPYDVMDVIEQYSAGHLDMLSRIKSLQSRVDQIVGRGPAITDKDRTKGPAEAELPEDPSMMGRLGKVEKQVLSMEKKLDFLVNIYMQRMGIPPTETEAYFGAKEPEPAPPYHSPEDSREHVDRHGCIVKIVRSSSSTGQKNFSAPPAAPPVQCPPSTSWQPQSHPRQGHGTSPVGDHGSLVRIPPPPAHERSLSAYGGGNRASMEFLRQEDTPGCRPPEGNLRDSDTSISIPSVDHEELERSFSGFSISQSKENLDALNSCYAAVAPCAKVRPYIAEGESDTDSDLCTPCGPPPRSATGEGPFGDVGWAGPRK", "experiment": "[…] flux in transfected CHO cells; two-electrode voltage clamp in Xenopus oocytes (inhibition)"}, "Kv7.1": {"biological_target": "T2, Kv7.1 (Homo sapiens, UniProt P51787)", "T2 construct": "gene KCNQ1", "T2 sequence (P51787 1-676)": "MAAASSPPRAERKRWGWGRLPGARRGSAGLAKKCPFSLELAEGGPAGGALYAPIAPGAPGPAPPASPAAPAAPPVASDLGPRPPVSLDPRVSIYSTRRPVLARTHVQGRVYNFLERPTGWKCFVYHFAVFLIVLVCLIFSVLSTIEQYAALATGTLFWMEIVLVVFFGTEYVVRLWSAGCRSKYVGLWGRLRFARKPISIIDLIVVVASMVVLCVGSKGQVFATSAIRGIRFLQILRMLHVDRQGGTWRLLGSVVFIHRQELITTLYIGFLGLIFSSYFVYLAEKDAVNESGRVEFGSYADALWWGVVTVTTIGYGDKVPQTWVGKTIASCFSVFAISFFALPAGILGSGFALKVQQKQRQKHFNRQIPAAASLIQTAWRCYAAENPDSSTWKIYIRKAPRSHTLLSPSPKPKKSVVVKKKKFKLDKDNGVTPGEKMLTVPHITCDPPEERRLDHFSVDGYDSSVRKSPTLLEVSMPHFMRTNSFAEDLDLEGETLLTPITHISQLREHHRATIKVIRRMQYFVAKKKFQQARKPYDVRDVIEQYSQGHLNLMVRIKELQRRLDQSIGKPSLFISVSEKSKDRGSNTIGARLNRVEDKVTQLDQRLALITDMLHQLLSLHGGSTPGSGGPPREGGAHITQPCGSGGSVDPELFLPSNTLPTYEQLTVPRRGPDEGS", "experiment": "two-electrode voltage clamp in Xenopus oocytes, […]; weak inhibition", "conditions": "read-out: % of control current at +40 mV (10 μM)"}, "Kv7.2": {"biological_target": "T3, Kv7.2 (Homo sapiens, UniProt O43526)", "T3 construct": "gene KCNQ2", "experiment": "[…] flux in transfected CHO cells; two-electrode voltage clamp in Xenopus oocytes"}, "Kv7.5": {"biological_target": "T4, Kv7.5 (Homo sapiens, UniProt Q9NR82)", "T4 construct": "gene KCNQ5", "experiment": "two-electrode voltage clamp in Xenopus oocytes, […]; current […] of control at +[…] mV", "conditions": "read-out: % of control current at +40 mV (10 μM)"}, "Kv7.4": {"biological_target": "T5, Kv7.4 (Homo sapiens, UniProt P56696)", "T5 construct": "gene KCNQ4", "T5 sequence (P56696 1-695)": "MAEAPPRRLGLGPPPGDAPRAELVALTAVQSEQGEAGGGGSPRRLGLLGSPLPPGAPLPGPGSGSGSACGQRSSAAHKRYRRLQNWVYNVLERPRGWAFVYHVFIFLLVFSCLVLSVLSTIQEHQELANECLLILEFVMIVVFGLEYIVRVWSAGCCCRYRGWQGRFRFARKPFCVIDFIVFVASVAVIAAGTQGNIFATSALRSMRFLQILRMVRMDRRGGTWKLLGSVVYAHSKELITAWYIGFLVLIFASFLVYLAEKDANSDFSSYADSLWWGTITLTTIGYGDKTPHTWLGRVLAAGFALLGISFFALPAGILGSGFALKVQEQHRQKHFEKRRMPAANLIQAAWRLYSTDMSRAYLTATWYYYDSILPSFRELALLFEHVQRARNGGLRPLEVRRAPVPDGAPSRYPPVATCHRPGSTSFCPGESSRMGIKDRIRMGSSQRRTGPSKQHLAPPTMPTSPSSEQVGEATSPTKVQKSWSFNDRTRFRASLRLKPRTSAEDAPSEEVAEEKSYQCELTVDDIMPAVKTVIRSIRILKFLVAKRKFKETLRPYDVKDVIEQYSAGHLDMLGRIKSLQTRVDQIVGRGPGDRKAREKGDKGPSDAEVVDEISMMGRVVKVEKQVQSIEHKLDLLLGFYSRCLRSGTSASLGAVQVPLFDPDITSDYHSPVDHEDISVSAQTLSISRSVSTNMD", "experiment": "[…] flux in transfected CHO cells; two-electrode voltage clamp in Xenopus oocytes; W242L loss of sensitivity"}}, "data": [{"smiles": "C[C@H](NC(=O)/C=C/c1ccccc1F)c1ccc2c(c1)N(CC1CC1)CCO2", "note": "[(S)-2, (S)-N-[1-(4-Cyclopropylmethyl-3,4-dihydro-2H-benzo[1], [4]oxazin-6-yl)-ethyl]-3-(2-fluoro-phenyl)-acrylamide]", "values": [{"measurement": "IC50", "setting": "Kv7.2-W236L", "result": 8.1, "unit": "µM"}, {"measurement": "remaining activity at 10 µM", "setting": "Kv7.1", "result": "87.9 ± 2.2", "unit": "%"}, {"measurement": "EC50", "setting": "Kv7.2", "result": 0.17, "unit": "µM"}, {"measurement": "remaining activity at 10 µM", "setting": "Kv7.5", "result": "676 ± 83.5", "unit": "%"}, {"measurement": "EC50", "setting": "Kv7.4", "result": 0.22, "unit": "µM"}]}]}
